Measured values reported in patent US9943525B2, “Composition for reducing cell senescence comprising Rho-kinase inhibitor and use thereof” (Samsung Electronics Co., Ltd., priority 2014, dated 2018).

Legend:
[1] = tested on: senescent fibroblasts (after 37 cell passages); test: cell proliferation and colony formation, crystal violet stain; assay type: cell-based, human; conditions: 4 weeks; for cell proliferation and cell colony formation: vs DMSO
Description: Fibroblast cell lines were cultured in Dulbecco's Modified Eagle's Media (DMEM) supplemented with 10% fetal bovine serum (FBS) and 100 unit/ml of penicillin, and 100 μg/ml of streptomycin (two antibiotics are purchased from Gibro-BRL and Grand Island, N.Y.) in a 5% CO2 incubator at 37° C. The fibroblast cell lines (M11 strain) were obtained from a foreskin of a child. Subculture was initiated when the cells were approximately 85% confluent in plates. Early subcultures were performed at a split ratio of 1:4, and later subcultures were performed at a split ratio of 1:2. When cell doubling time was 14 days, the cells were regarded as senescent fibroblasts (passages 35 to 37).
In order to determine optimum concentrations of Rho-kinase inhibitors Y-27632 (Selleckchem, S1049, 50 mg 2HCl salt form), FASUDIL (Selleckchem, S1573, 500 mg HCl salt form), and SR3677 (Synkinase, SYN1083, 10 mg), the senescent fibroblasts (after 37 cell passages) were seeded on each well of a 6-well plate in a concentration of 2,000 cells/well, and the wells were treated with 1 μM, 5 μM, 10 μM, 20 μM, and 30 μM of Y-27632, 1 μM, 5 μM, 10 μM, 20 μM, and 30 μM of FASUDIL, and 0.01 μM, 0.05 μM, 0.1 μM, 0.5 μM, and 1 μM of SR3677. In addition, a negative control group was prepared in the same manner, except that dimethyl sulfoxide (DMSO) was used. The culture media supplemented with the Rho-kinase inhibitors were changed at every 4 days, and colonies were stained with a 0.05% crystal violet stain after 4 weeks.

[2] = tested on: senescent fibroblasts (after 37 cell passages); test: cell cycle analysis (Muse Cell Cycle Kit); assay type: cell-based, human; conditions: 5 μM; 4 weeks; vs DMSO control; FIG. 4
Description: The senescent fibroblasts (after 37 cell passages) were cultured in culture media respectively supplemented with 5 μM of Y-27632 (A), 5 μM of FASUDIL (B), and 0.5 μM of SR3677 (C) for 4 weeks in a 5% CO2 incubator at 37° C. The culture media were changed with new culture media respectively supplemented with 5 μM of Y-27632, 5 μM of FASUDIL, and 0.5 μM of SR3677 at every 4 days. Cell cycles were measured using a Muse™ Cell Cycle Kit (MERCK Millipore, MCH100106) in accordance with manufacturer's manuals. Light having a wavelength of 488 nm was irradiated to the cells using a Muse™ Cell Analyzer (MERCK Millipore) and light emission at 520 nm was measured. The results were analyzed using Cell Quest 3.2 software (Beckton Dickinson). The control group was prepared in the same manner, except that 0.05 (v/v) % of DMSO was added thereto.

[3] = tested on: senescent myoblasts (passage 11); test: microscopic observation of cell number and shape; assay type: cell-based, Human; conditions: 4 weeks, FIG. 13; for numbers of cells: vs DMSO
Description: Myoblast cell lines (Human Skeletal Muscle Myoblasts, Lonza CC-2580 LOT:0000387550) were cultured in SkBM™-2 Basal Media (Lonza CC-3246) including an SkGM™-2 SingleQuots™ Kit (Lonza CC-3244) on plates coated with Collagen Type I (Greiner Bio One, 658950) in a 5% CO2 incubator at 37° C. Subculture was initiated when the cells were approximately 85% confluent in plates. Early subcultures were performed at a split ratio of 1:4, and later subcultures were performed at a split ratio of 1:2. When cell doubling time was 14 days, the cells were regarded as senescent myoblasts (cell passages 10 to 12).
Senescent cells were seeded on each well of a 6-well plate coated with Collagen Type I (Greiner Bio One, 657950) in a concentration of 2,000 cells/well. Senescent myoblasts (passage 11) were cultured in the presence of 5 μM of Y-27632, 5 μM of FASUDIL, and 0.5 μM of SR3677 for 4 weeks in a 5% CO2 incubator at 37° C. The culture media were changed at every 4 days with new culture media supplemented with 5 μM of Y-27632, 5 μM of FASUDIL, and 0.5 μM of SR3677. A negative control group was prepared in the same manner, except that 0.05 (v/v) % of DMSO was used.
FIG. 13 illustrates microscopic images of cells cultured in the presence of 5 μM of Y-27632, 5 μM of FASUDIL, and 0.5 μM of SR3677. In “a” of FIG. 13, a portion was selected and marked by a rectangle with a dashed line, and the selected portion was enlarged in a1 for closer examination of the cultured cells. In a1 of FIG. 13, a portion was selected, marked by a rectangle with a dashed line, enlarged in a2 for much closer examination of the cultured cells (Scale bar 20 μm).

[4] = tested on: senescent fibroblasts (after 37 cell passages); test: microscopic observation of cell number and shape; assay type: cell-based, human; conditions: 5 μM, 4 weeks, FIG. 3
Description: In addition, after senescent fibroblasts (after 37 cell passages) were cultured in the same culture media and same conditions as described above in the presence of 0.05 (v/v) % of DMSO and Y-27632 (5 μM), shapes of the cells were observed using a microscope. FIG. 3 is a microscopic image illustrating cell shapes of senescent fibroblasts (after 37 cell passages) cultured in the presence of Y-27632 for 4 weeks.

Row | Structure (SMILES) | cell proliferation and cell colony formation ([1]; 5 μM, FIG. 1 B) | toxic effects on cell proliferation and cell colony formation ([1]; 10 μM, 20 μM, and 30 μM, FIG. 1 B) | number of cells in G0/G1 phases [2] | cell shape ([3]; 5 μM) | numbers of cells ([3]; 5 μM) | cell proliferation and cell colony formation ([1]; 0.5 μM, FIG. 1 C) | toxic effects on cell proliferation and cell colony formation ([1]; 1 μM, FIG. 1 C) | cell shape ([3]; 0.5 μM) | numbers of cells ([3]; 0.5 μM) | cell proliferation and cell colony formation ([1]; 5 μM, 10 μM, and 20 μM, FIG. 1 A) | toxic effects on cell proliferation and cell colony formation ([1]; 30 μM, FIG. 1 A) | cell shape [4] | numbers of cells ([4]; vs DMSO)
1 | O=S(=O)(c1cccc2cnccc12)N1CCCNCC1 [FASUDIL, 5-(1,4-diazepane-1-sulfonyl)isoquinoline] | greatest therapeutic effects | reduces cell proliferation and cell colony formation due to toxic effects | less than that of cells in S and G2/M phases | spindle shape generally found in young cells | greater than that of the control group | – | – | – | – | – | – | – | –
2 | CN(C)CCOc1cc(-c2cn[nH]c2)ccc1NC(=O)C1COc2ccccc2O1 (stereo not shown) [SR3677] | – | – | – | – | – | greatest therapeutic effects | reduces cell proliferation and cell colony formation due to toxic effects | spindle shape generally found in young cells | greater than that of the control group | – | – | – | –
3 | C[C@@H](N)[C@H]1CC[C@H](C(=O)Nc2ccncc2)CC1 [Y-27632, (1R,4R)-4-((R)-1-aminoethyl)-N-(pyridin-4-yl)cyclohexanecarboxamide] | – | – | less than that of cells in S and G2/M phases | spindle shape generally found in young cells | greater than that of the control group | – | – | – | – | greatest therapeutic effects | reduces cell proliferation and cell colony formation due to toxic effects | spindle shape generally found in young cells | greater than that of the control group
